Assay results: US20240390383A1, “DIOXAZINES AND THEIR USE IN TREATMENT OF GBA-RELATED DISEASES” (ZEVRA DENMARK A/S, priority 2021, published 2024)
Several values for one entry are separate records, joined by “and”; a condition that tells them apart may be missing. Identical values can stand only once.

Target: T1, GCase (GBA) in human fibroblast cell line GM10915 harboring the L444P GBA mutation (Homo sapiens, UniProt P04062, L483P)
T1 construct: Human fibroblast cell line GM10915 harboring the L444P GBA mutation; host or cells: GM10915 human fibroblasts
T1 sequence (P04062 40-536 L483P): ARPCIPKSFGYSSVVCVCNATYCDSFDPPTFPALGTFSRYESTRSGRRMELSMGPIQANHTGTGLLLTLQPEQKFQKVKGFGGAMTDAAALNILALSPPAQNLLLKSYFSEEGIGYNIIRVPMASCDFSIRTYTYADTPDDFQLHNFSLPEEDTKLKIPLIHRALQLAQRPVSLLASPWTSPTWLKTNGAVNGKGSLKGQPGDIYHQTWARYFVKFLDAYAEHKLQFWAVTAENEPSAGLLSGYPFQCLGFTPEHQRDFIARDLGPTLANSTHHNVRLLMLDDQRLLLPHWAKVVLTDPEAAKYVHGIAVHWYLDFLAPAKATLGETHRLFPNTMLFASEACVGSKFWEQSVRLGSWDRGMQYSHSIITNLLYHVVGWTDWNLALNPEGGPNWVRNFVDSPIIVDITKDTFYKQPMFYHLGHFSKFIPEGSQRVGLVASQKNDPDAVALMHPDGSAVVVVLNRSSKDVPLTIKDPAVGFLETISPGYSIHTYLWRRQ
Test: GCase activity assay (4-MUG substrate, normalised to crystal violet staining) in L444P GBA fibroblasts
Type: cell-based
Conditions: 5 days exposure; for GBA EC1.5: concentration giving 150% GCase activity (1.5-fold induction), 8-point dose range
Description: Human fibroblast cell line GM10915 harboring the L444P GBA mutation was obtained from Coriell Biorepositories.
All chemicals (Glacial acetic acid, Glycine, 4-Methylumbelliferyl b-D-glucopyranoside (4-MUG), Sodium acetate trihydrate, Sodium hydroxide, Crystal violet, SDS, Ammonium hydroxide) were obtained from Sigma-Aldrich (Denmark) Compounds tested for GCase activity were dissolved in H2O or DMSO.
The GM10915 cell line was cultured under standard cell culture conditions (37° C. and 5% CO2) in complete DMEM medium supplemented with nonessential amino acids (NEAA), 1% Pen-Strep and 12% FCS. Cells were seeded at a density of 10^4 cells/well in 100 μL complete medium in one black 96-well plate for glucosylceramidase (GCase) activity measurement and in one clear 96-well plate for crystal violet staining to correct for cell density. Crystal violet staining is performed to obtain quantitative information about the relative density of cells adhering to multi-wells plates.
The assay was adapted from Sawkar et al (2002) and briefly described in the following. The day after seeding of cells, the medium was replaced with fresh medium containing the compounds to be tested. Compounds were tested in duplicate and in an 8-point diluted dose range to obtain a dose response. Cells were exposed with compounds for five days. Fresh compound was added every 2-3 days. PBS was included to define the basal level of GCase activity.
Cells were washed three times with 200 μL PBS per well and 50 μL of 2.5 mM 4-MUG buffer (4-MUG dissolved in 0.2 M acetate buffer pH 4.0) was added and the cells were incubated at 37° C., 5% CO2 for 23 hours. The reaction was stopped by adding 150 μL 0.2 M glycine buffer (pH 10.8). Fluorescence was measured with a Varioskan® Flash reader (Thermo Scientific) at an excitation/emission setting of 365/445 nm.
Cells were treated with compounds in a parallel setup identical to the setup to test for GCase activity. At the end of compound treatment, cells were washed once with 200 μL PBS per well and 50 μL 0.1% w/v crystal violet (in H2O) was added. Following 10 min. of incubation, the crystal violet solution was removed, and the cells were washed three times with 200 μL PBS and 100 μL 1% SDS was added to solubilize the stain. The plate was agitated on an orbital shaker for 10-30 min. Absorbance (A) is measured at […] using a Varioskan® Flash reader (Thermo Scientific).
The fluorescence signal (F) derived from the GCase measurement is normalized to the absorbance signal (A) derived from the crystal violet staining. The percent GCase activity resulting from compound treatment is calculated relative to the basal activity obtained from untreated cells.
Maximal effect of compounds (Emax) is determined from the dose response effects as the maximum “Percent GCase activity” achieved in the dose range tested.

[1] = maximum percent GCase activity relative to untreated cells in the dose range tested

Row | GBA EC1.5 | Emax [1] [%] | GBA Emax [1] [%] | Compound
1 | 12 µM | 270 | – | COCCC1(C2=NOCC(CN3CCCCC3)O2)CCNC1 (racemic) [compound 685, rac-3-(3-(2-methoxyethyl)pyrrolidin-3-yl)-5-(piperidin-1-ylmethyl)-5,6-dihydro-1,4,2-dioxazine]
2 | 29 µM | 213 | – | COC1CN(C)CC1C1=NOCC(CN2CCCCC2)O1 (racemic) [compound 821, rac-3-(4-methoxy-1-methylpyrrolidin-3-yl)-5-(piperidin-1-ylmethyl)-5,6-dihydro-1,4,2-dioxazine]
3 | 34 µM | 152 | – | CC1(C)CNCC1C1=NOCC(CN2CCCCC2)O1 (racemic) [compound 688, rac-3-(4,4-dimethylpyrrolidin-3-yl)-5-(piperidin-1-ylmethyl)-5,6-dihydro-1,4,2-dioxazine]
4 | 50 µM | 137 | – | CN1C(=O)CC(C2=NOCC(CN3CCCCC3)O2)c2ccccc21 (stereo not drawn) [compound 664]
5 | 7 µM | 187 | – | CN(C)[C@H]1CC[C@@H](C2=NOCC(CN3CCCCC3)O2)CC1 (relative stereo) [compound 569, rac-rel-cis-(1S,4S)—N,N-dimethyl-4-(5-(piperidin-1-ylmethyl)-5,6-dihydro-1,4,2-dioxazin-3-yl)cyclohexan-1-amine]
6 | 6 µM | 172 | – | CN1CCCC(C(C)(C)C2=NOCC(CN3CCCCC3)O2)C1 (racemic) [compound 595, rac-3-(2-(1-methylpiperidin-3-yl)propan-2-yl)-5-(piperidin-1-ylmethyl)-5,6-dihydro-1,4,2-dioxazine]
7 | 50 µM | 127 | – | c1ccc(N2CCC(C3=NOCC(CN4CCCCC4)O3)C2)nc1 (stereo not drawn) [compound 672]
8 | 5 µM | 226 | – | C[C@@H]1CC(C2=NOCC(CN3CCCCC3)O2)C[C@H](C)N1 (mixture of isomers) [compound 633, rac-3-((2R,6S)-2,6-dimethylpiperidin-4-yl)-5-(piperidin-1-ylmethyl)-5,6-dihydro-1,4,2-dioxazine]
9 | 25 µM | 252 | – | CC(N)C(=O)N1CCC(C2=NOCC(CN3CCCCC3)O2)C1 (racemic) [compound 691, rac-2-amino-1-(3-(5-(piperidin-1-ylmethyl)-5,6-dihydro-1,4,2-dioxazin-3-yl)pyrrolidin-1-yl)propan-1-one]
10 | 49 µM | 151 | – | CC1(C2=NOCC(CN3CCC(F)(F)CC3)O2)CCNCC1 (racemic) [compound 673, rac-5-((4,4-difluoropiperidin-1-yl)methyl)-3-(4-methylpiperidin-4-yl)-5,6-dihydro-1,4,2-dioxazine]
11 | 6 µM | 390 | – | CC1ON=C(C2CCNC2)OC1CN1CCCCC1 (racemic) [compound 616, rac-6-methyl-5-(piperidin-1-ylmethyl)-3-(pyrrolidin-3-yl)-5,6-dihydro-1,4,2-dioxazine]
12 | 4 µM and 2 µM | 249 | 230 | CC(C)C1ON=C(C2CCN(C)C2)OC1CN1CCCCC1 (racemic) [compound 707, rac-6-isopropyl-3-(1-methylpyrrolidin-3-yl)-5-(piperidin-1-ylmethyl)-5,6-dihydro-1,4,2-dioxazine]
13 | 50 µM | 116 | – | c1cnc(N2CCC(C3=NOCC(CN4CCCCC4)O3)CC2)nc1 (stereo not drawn) [compound 658]
14 | 14 µM | 185 | – | C[C@@H]1CNC[C@H]1C1=NOCC(CN2CCCCC2)O1 (relative stereo) [compound 551, rac-rel-trans-3-((3R,4R)-4-methylpyrrolidin-3-yl)-5-(piperidin-1-ylmethyl)-5,6-dihydro-1,4,2-dioxazine]
15 | 17 µM | 226 | – | C1CCN(CC2CON=C(C3CCNC3)O2)CC1 (racemic) [compound 508, rac-5-(piperidin-1-ylmethyl)-3-(pyrrolidin-3-yl)-5,6-dihydro-1,4,2-dioxazine]
16 | 50 µM | 137 | – | Nc1ccc(N2CCC(C3=NOCC(CN4CCCCC4)O3)C2)nc1 (stereo not drawn) [compound 698]
17 | 15 µM | 209 | – | C1CCN(CCC2=NOC[C@H](CN3CCCCC3)O2)CC1 [compound 891]
18 | 3 µM | 138 | – | CN(C)c1ccc(CC2(C3=NOCC(CN4CCCCC4)O3)CCNCC2)cn1 (stereo not drawn) [compound 543]
19 | 50 µM | 141 | – | OC1(C2=NOCC(CN3CCCCC3)O2)CCNCC1 (stereo not drawn) [compound 650]
20 | 10 µM | 242 | – | CC(C)N1CCC(C2=NOCC(CN3CCCCC3)O2)CC1 (racemic) [compound 719, rac-3-(1-isopropylpiperidin-4-yl)-5-(piperidin-1-ylmethyl)-5,6-dihydro-1,4,2-dioxazine]
21 | 28 µM | 230 | – | CC(C)(C1=NOCC(CN2CCCCC2)O1)C1CCNC1 (racemic) [compound 491, rac-5-(piperidin-1-ylmethyl)-3-(2-(pyrrolidin-3-yl)propan-2-yl)-5,6-dihydro-1,4,2-dioxazine]
22 | 42 µM | 193 | – | NCC(=O)N1CCC(C2=NOCC(CN3CCCCC3)O2)CC1 (racemic) [compound 787, rac-2-amino-1-(4-(5-(piperidin-1-ylmethyl)-5,6-dihydro-1,4,2-dioxazin-3-yl)piperidin-1-yl)ethan-1-one]
23 | 16 µM | 251 | – | CC1NCCC1C1=NOCC(CN2CCCCC2)O1 (racemic) [compound 559, rac-3-(2-methylpyrrolidin-3-yl)-5-(piperidin-1-ylmethyl)-5,6-dihydro-1,4,2-dioxazine]
24 | 3 µM | 231 | – | c1sc(C2CCNCC2)nc1C1=NOCC(CN2CCCCC2)O1 (stereo not drawn) [compound 878]
25 | 25 µM | 174 | – | C1CCN(CC2CON=C([C@]34CC[C@H]3CNC4)O2)CC1 (relative stereo) [compound 485, rac-rel-trans-3-((1R,5R)-3-azabicyclo[3.2.0]heptan-1-yl)-5-(piperidin-1-ylmethyl)-5,6-dihydro-1,4,2-dioxazine di-2,2,2-trifluoroacetate]
26 | 50 µM | 107 | – | FC(F)(F)CN1CCCC(C2=NOCC(CN3CCCCC3)O2)C1 (stereo not drawn) [compound 570]
27 | 50 µM | 140 | – | c1ccc(N2CCCC(C3=NOCC(CN4CCCCC4)O3)C2)nc1 (stereo not drawn) [compound 661]
28 | 28 µM | 212 | – | CC(C)C1ON=C(C2CCNC2)OC1CN(C)C (racemic) [compound 713, rac-1-(6-isopropyl-3-(pyrrolidin-3-yl)-5,6-dihydro-1,4,2-dioxazin-5-yl)-N,N-dimethylmethanamine]
29 | 21 µM | 225 | – | COCCC1(C2=NOCC(CN3CCCCC3)O2)CCN(C)C1 (racemic) [compound 701, rac-3-(3-(2-methoxyethyl)-1-methylpyrrolidin-3-yl)-5-(piperidin-1-ylmethyl)-5,6-dihydro-1,4,2-dioxazine]
30 | 50 µM | 110 | – | Nc1ccc(N2CCCC(C3=NOCC(CN4CCCCC4)O3)C2)nc1 (stereo not drawn) [compound 687]

Row | Compound | GBA EC1.5 | Emax [1] [%] | GBA Emax [1] [%]
31 | C1CCN(CC2CON=C(C34CCN(CC3)CC4)O2)CC1 (racemic) [compound 642, rac-5-(piperidin-1-ylmethyl)-3-(quinuclidin-4-yl)-5,6-dihydro-1,4,2-dioxazine] | 3 µM | 282 | –
